Molecules are shown by their SMILES.

For the assay, the system named is MDA-231 cancer cells. The assay is described as follows: Inhibition of proliferation assay, cell confluence (IncuCyte live cell imaging). Type of assay: cell-based. As to conditions: MDA-231 cells, concentration 10 uM; relative confluence normalised to time zero, images every 3 h over 4-5 d. From the text:
Inhibition of Proliferation Assay Cell Confluence The confluence value is a surrogate for cell proliferation and growth. The value is expressed as a percent confluence, which represents the fraction of culture dish-surface that is occupied by cells. As the number of cells in the dish increases over time due to proliferation, so will their coverage of that surface increase. Expansion of the cell population on the cell culture-dish surface and confluence have mostly a linear relationship until the cells on the plate surface begin to reach saturation or maximum density. Confluence is determined based on image analysis. Image based software can identify objects in the image field base on changes to pixel density in a grey scale image. The software can then assign a mask to those pixels within the object. Objects can be ‘gated’ out based on size and shape. To determine cell confluence, images of cells are first masked as objects. The surface area of the image that is masked is measured and compared to the total surface area of the culture dish surface to obtain a percent confluence. MDA-231 cancer cells were obtained from ATCC. Cells were cultured in Dulbecco's Modified Eagle Medium (DMEM) supplemented with 10% Fetal Bovine Serum (FBS), 2 mM Glutamax, 1 mM Non Essential Amino Acid (NEAA) solution and 1 mM sodium pyruvate. Compounds were dissolved in DMSO at 10 mM and diluted in cellular medium and tested at 10 μM (micromolar). Final DMSO concentrations were <0.1%. Images were acquired with an IncuCyte Live Cell Imaging microscopy (Essen Bioscience) at every 3 h under cell culture conditions with 10× objective over 4-5 d. Cell confluence was calculated from one field of view per well using the IncuCyte in-built algorithm. Relative confluence values were obtained by normalising each value to the time zero value in each sample.
`CC[C@H]1OC(=O)[C@H](C)[C@@H](O[C@H]2C[C@@](C)(OC)[C@@H](O)[C@H](C)O2)[C@H](C)[C@@H](O[C@@H]2O[C@H](C)C[C@H](N(C)C)[C@H]2O)[C@](C)(O)C[C@@H](C)CN(C(=O)CCCCCCCCCCCCC[P+](c2ccccc2)(c2ccccc2)c2ccccc2)[C@H](C)[C@@H](O)[C@]1(C)O` [Example 1, {14-[(2R,3S,4R,5R,8R,10R,11R,12S,13S,14R)-11-{[(2S,3R,4S,6R)-4-(dimethylamino)-3-hydroxy-6-methyloxan-2-yl]oxy}-2-ethyl-3,4,10-trihydroxy-13-{[(2R,4R,5S,6S)-5-hydroxy-4-methoxy-4,6-dimethyloxan-2-yl]oxy}-3,5,8,10,12,14-hexamethyl-15-oxo-1-oxa-6-azacyclopentadecan-6-yl]-14-oxotetradecyl}triphenylphosphonium hexafluorophosphate(V)]: the “% Confluence” value was 4.2%.
The value for `CC[C@H]1OC(=O)[C@H](C)[C@@H](O[C@H]2C[C@@](C)(OC)[C@@H](O)[C@H](C)O2)[C@H](C)[C@@H](O[C@@H]2O[C@H](C)C[C@H](N(C)C)[C@H]2O)[C@](C)(O)C[C@@H](C)CN(C(=O)CCCCCCCCC[P+](c2ccccc2)(c2ccccc2)c2ccccc2)[C@H](C)[C@@H](O)[C@]1(C)O` [Example 2, {10-[(2R,3S,4R,5R,8R,10R,11R,12S,13S,14R)-11-{[(2S,3R,4S,6R)-4-(dimethylamino)-3-hydroxy-6-methyloxan-2-yl]oxy}-2-ethyl-3,4,10-trihydroxy-13-{[(2R,4R,5S,6S)-5-hydroxy-4-methoxy-4,6-dimethyloxan-2-yl]oxy}-3,5,8,10,12,14-hexamethyl-15-oxo-1-oxa-6-azacyclopentadecan-6-yl]-10-oxodecyl}triphenylphosphonium hexafluorophosphate(V)] was 13.4%; that for `CC[C@H]1OC(=O)[C@H](C)[C@@H](O[C@H]2C[C@@](C)(OC)[C@@H](O)[C@H](C)O2)[C@H](C)[C@@H](O[C@@H]2O[C@H](C)C[C@H](N(C)C)[C@H]2O)[C@](C)(O)C[C@@H](C)CN(C(=O)CCCCCCCC[P+](c2ccccc2)(c2ccccc2)c2ccccc2)[C@H](C)[C@@H](O)[C@]1(C)O` [Example 3, {9-[(2R,3S,4R,5R,8R,10R,11R,12S,13S,14R)-11-{[(2S,3R,4S,6R)-4-(dimethylamino)-3-hydroxy-6-methyloxan-2-yl]oxy}-2-ethyl-3,4,10-trihydroxy-13-{[(2R,4R,5S,6S)-5-hydroxy-4-methoxy-4,6-dimethyloxan-2-yl]oxy}-3,5,8,10,12,14-hexamethyl-15-oxo-1-oxa-6-azacyclopentadecan-6-yl]-9-oxononyl}triphenylphosphonium hexafluorophosphate(V)] was 98.4%; that for `CC[C@H]1OC(=O)[C@H](C)[C@@H](O[C@H]2C[C@@](C)(OC)[C@@H](O)[C@H](C)O2)[C@H](C)[C@@H](O[C@@H]2O[C@H](C)C[C@H](N(C)C)[C@H]2O)[C@](C)(O)C[C@@H](C)CN(C(=O)CCCCCC[P+](c2ccccc2)(c2ccccc2)c2ccccc2)[C@H](C)[C@@H](O)[C@]1(C)O` [Example 4, {7-[(2R,3S,4R,5R,8R,10R,11R,12S,13S,14R)-11-{[(2S,3R,4S,6R)-4-(dimethylamino)-3-hydroxy-6-methyloxan-2-yl]oxy}-2-ethyl-3,4,10-trihydroxy-13-{[(2R,4R,5S,6S)-5-hydroxy-4-methoxy-4,6-dimethyloxan-2-yl]oxy}-3,5,8,10,12,14-hexamethyl-15-oxo-1-oxa-6-azacyclopentadecan-6-yl]-7-oxoheptyl}triphenylphosphonium hexafluorophosphate(V)] was 89.9%.
The value for `CC[C@H]1OC(=O)[C@H](C)[C@@H](O[C@H]2C[C@@](C)(OC)[C@@H](O)[C@H](C)O2)[C@H](C)[C@@H](O[C@@H]2O[C@H](C)C[C@H](N(C)C)[C@H]2O)[C@](C)(O)C[C@@H](C)CN(C(=O)CCCCCCCCCCC[P+](c2ccccc2)(c2ccccc2)c2ccccc2)[C@H](C)[C@@H](O)[C@]1(C)O` [Example 5, {12-[(2R,3S,4R,5R,8R,10R,11R,12S,13S,14R)-11-{[(2S,3R,4S,6R)-4-(dimethylamino)-3-hydroxy-6-methyloxan-2-yl]oxy}-2-ethyl-3,4,10-trihydroxy-13-{[(2R,4R,5S,6S)-5-hydroxy-4-methoxy-4,6-dimethyloxan-2-yl]oxy}-3,5,8,10,12,14-hexamethyl-15-oxo-1-oxa-6-azacyclopentadecan-6-yl]-12-oxododecyl}triphenylphosphonium hexafluorophosphate(V)] was 5%; that for `CC[C@H]1OC(=O)[C@H](C)[C@@H](O[C@H]2C[C@@](C)(OC)[C@@H](O)[C@H](C)O2)[C@H](C)[C@@H](O[C@@H]2O[C@H](C)C[C@H](N(C)C)[C@H]2O)[C@](C)(O)C[C@@H](C)CN(C(=O)CCCCC[PH](c2ccccc2)(c2ccccc2)c2ccccc2)[C@H](C)[C@@H](O)[C@]1(C)O` [Example 6, {6-[(2R,3S,4R,5R,8R,10R,11R,12S,13S,14R)-11-{[(2S,3R,4S,6R)-4-(dimethylamino)-3-hydroxy-6-methyloxan-2-yl]oxy}-2-ethyl-3,4,10-trihydroxy-13-{[(2R,4R,5S,6S)-5-hydroxy-4-methoxy-4,6-dimethyloxan-2-yl]oxy}-3,5,8,10,12,14-hexamethyl-15-oxo-1-oxa-6-azacyclopentadecan-6-yl]-6-oxohexyl}triphenylphosphonium hexafluorophosphate(V)] was 118.9%.
The figure for `CC[C@H]1OC(=O)[C@H](C)[C@@H](O[C@H]2C[C@@](C)(OC)[C@@H](O)[C@H](C)O2)[C@H](C)[C@@H](O[C@@H]2O[C@H](C)C[C@H](N(C)C)[C@H]2O)[C@](C)(O)C[C@@H](C)CN(CCCCCCCC[P+](c2ccccc2)(c2ccccc2)c2ccccc2)[C@H](C)[C@@H](O)[C@]1(C)O.[I-]` [Example 7, {8-[(2R,3S,4R,5R,8R,10R,11R,12S,13S,14R)-11-{[(2S,3R,4S,6R)-4-(dimethylamino)-3-hydroxy-6-methyloxan-2-yl]oxy}-2-ethyl-3,4,10-trihydroxy-13-{[(2R,4R,5S,6S)-5-hydroxy-4-methoxy-4,6-dimethyloxan-2-yl]oxy}-3,5,8,10,12,14-hexamethyl-15-oxo-1-oxa-6-azacyclopentadecan-6-yl]octyl}triphenylphosphonium iodide] is 23.3%.
On to `CC[C@H]1OC(=O)[C@H](C)[C@@H](O[C@H]2C[C@@](C)(OC)[C@@H](O)[C@H](C)O2)[C@H](C)[C@@H](O[C@@H]2O[C@H](C)C[C@H](N(C)C)[C@H]2O)[C@](C)(O)C[C@@H](C)CN(CCCCCC[P+](c2ccccc2)(c2ccccc2)c2ccccc2)[C@H](C)[C@@H](O)[C@]1(C)O` [Example 8, {6-[(2R,3S,4R,5R,8R,10R,11R,12S,13S,14R)-11-{[(2S,3R,4S,6R)-4-(dimethylamino)-3-hydroxy-6-methyloxan-2-yl]oxy}-2-ethyl-3,4,10-trihydroxy-13-{[(2R,4R,5S,6S)-5-hydroxy-4-methoxy-4,6-dimethyloxan-2-yl]oxy}-3,5,8,10,12,14-hexamethyl-15-oxo-1-oxa-6-azacyclopentadecan-6-yl]hexyl}triphenylphosphonium iodide], for which the “% Confluence” value is on record as 109.9%.
The figure for `CC[C@H]1OC(=O)[C@H](C)[C@@H](O[C@H]2C[C@@](C)(OC)[C@@H](O)[C@H](C)O2)[C@H](C)[C@@H](O[C@@H]2O[C@H](C)C[C@H](N(C)C)[C@H]2O)[C@](C)(O)C[C@@H](C)CN(C(=O)CCCCCCC[P+](c2ccccc2)(c2ccccc2)c2ccccc2)[C@H](C)[C@@H](O)[C@]1(C)O` [Example 9, {8-[(2R,3S,4R,5R,8R,10R,11R,12S,13S,14R)-11-{[(2S,3R,4S,6R)-4-(dimethylamino)-3-hydroxy-6-methyloxan-2-yl]oxy}-2-ethyl-3,4,10-trihydroxy-13-{[(2R,4R,5S,6S)-5-hydroxy-4-methoxy-4,6-dimethyloxan-2-yl]oxy}-3,5,8,10,12,14-hexamethyl-15-oxo-1-oxa-6-azacyclopentadecan-6-yl]-8-oxooctyl}triphenylphosphonium hexafluorophosphate(V)] is 105.3%; for `CC[C@H]1OC(=O)[C@H](C)[C@@H](O)[C@H](C)[C@@H](O[C@@H]2O[C@H](C)C[C@H](N(C)C)[C@H]2O)[C@](C)(O)C[C@@H](C)CN(C(=O)CCCCCCCCCCC[P+](c2ccccc2)(c2ccccc2)c2ccccc2)[C@H](C)[C@@H](O)[C@]1(C)O` [Example 12, {12-[(2R,3S,4R,5R,8R,10R,11R,12S,13S,14R)-11-{[(2S,3R,4S,6R)-4-(dimethylamino)-3-hydroxy-6-methyloxan-2-yl]oxy}-2-ethyl-3,4,10,13-tetrahydroxy-3,5,8,10,12,14-hexamethyl-15-oxo-1-oxa-6-azacyclopentadecan-6-yl]-12-oxododecyl}triphenylphosphonium hexafluorophosphate(V)] it is 6.6%; for `CC[C@H]1OC(=O)[C@H](C)[C@@H](O)[C@H](C)[C@@H](O)[C@](C)(O)C[C@@H](C)CN(C(=O)CCCCCCCCCCC[PH](c2ccccc2)(c2ccccc2)c2ccccc2)[C@H](C)[C@@H](O)[C@]1(C)O` [Example 13, {12-[(2R,3S,4R,5R,8R,10R,11R,12S,13S,14R)-2-ethyl-3,4,10,11,13-pentahydroxy-3,5,8,10,12,14-hexamethyl-15-oxo-1-oxa-6-azacyclopentadecan-6-yl]-12-oxododecyl}triphenylphosphonium hexafluorophosphate(V)] it is 11%.

The values above are taken from patent publication US11560395B2, “Azithromycin derivatives containing a phosphonium ion as anticancer agents” (Rising Tide Foundation, priority 2017, dated 2023).
